Assay results: paper PMC5386672, “Structure-guided design of purine-based probes for selective Nek2 inhibition” (Oncotarget, 2016)
pIC50: −log10 of the molar value. “Also recorded” adds a separate entry of the source.

Tests used:
Nek2 [1] = conditions: read-out: Nek2 inhibitory activity IC50; cited from earlier work
CDK2 = CDK2 (Homo sapiens, UniProt P24941); assay: CDK2 kinase inhibition assay; assay type: biochemical; conditions: 12.5 μM ATP
Nek2 [2] = molecular target: T1, Nek2 (Homo sapiens, UniProt P51955); assay: Nek2 Caliper kinase inhibition assay; assay type: biochemical; conditions: 30 μM ATP
T1 construct: purchased Invitrogen
T1 sequence (P51955 1-445): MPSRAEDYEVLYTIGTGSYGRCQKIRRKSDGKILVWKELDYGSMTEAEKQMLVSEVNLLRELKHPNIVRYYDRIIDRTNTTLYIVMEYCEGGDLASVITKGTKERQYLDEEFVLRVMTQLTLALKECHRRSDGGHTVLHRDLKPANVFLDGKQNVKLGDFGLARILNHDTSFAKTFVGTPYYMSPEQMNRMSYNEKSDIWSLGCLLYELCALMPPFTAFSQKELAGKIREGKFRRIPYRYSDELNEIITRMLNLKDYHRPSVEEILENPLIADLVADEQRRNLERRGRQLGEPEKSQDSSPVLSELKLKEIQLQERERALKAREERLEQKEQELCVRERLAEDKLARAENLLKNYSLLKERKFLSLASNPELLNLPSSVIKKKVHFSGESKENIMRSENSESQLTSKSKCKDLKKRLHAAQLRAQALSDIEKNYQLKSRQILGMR

Plk1 = Plk1 (Homo sapiens, UniProt P53350); assay: Separate counter-screen against Plk1; assay type: biochemical
Description: To assess the broader kinase selectivity of this series of 6-(dialkylamino)vinyl-purines, the diethylamino derivative 71 was chosen for wider screening against 24 kinases at 2 μM inhibitor concentration (Figure 5 – method as in reference 12).

Nek2 [3] = molecular target: T1, Nek2; assay: Nek2 inhibition reversibility assay (rapid dilution); assay type: biochemical; conditions: 30 min pre-incubation at ten-fold IC50, rapid 100-fold dilution
Description: The reversible nature of Nek2 inhibition by enamine 70 was measured using a kinase inhibition-reversibility assay. […] This solution in reaction buffer was pre-incubated with inhibitor 70 at a concentration ten-fold its IC50, calculated to afford approximately 91% inhibition of Nek2. […] Following rapid 1:100 dilution, a reaction progress curve was generated by monitoring for levels of the phosphorylated substrate as described in reference 16 using the Caliper EZ Reader II instrument at different times throughout the duration of the reaction.

Nek2 [4] = molecular target: T1, Nek2; assay: Effect of pre-incubation of Nek2 with inhibitor on IC50 (time-dependence); assay type: biochemical
From the text: www.impactjournals.com/oncotarget/ Oncotarget, Supplementary Materials 2016
Time after inhibitor addition
(1 picture or pasted object on this page, not shown here)

[5] = HPLC analysis of enamine stability in assay media, DMSO and pH buffers; assay type: physicochemical
Description: To determine whether the enamines were hydrolysed under the assay conditions, the stability of representative enamine derivative 72 was assessed in a range of assay media and pH buffers. Stock solutions of 72 in each of the various media were prepared and aliquots were extracted from each solution at various time points and subjected to HPLC analysis to measure the remaining intact enamine (Figure 9).
Solutions of 10 μM 72 were prepared in100% MEM media, 100% RPMI media, 10% (v/v) FCS in MEM, 10% BSA in water (v/v), 10 % FCS (v/v) in water, or 10 % (v/v) boiled FCS in water, DMSO and phosphate buffered water at pH 2, pH 7 and pH 10 by adding 10 μL of the 1 mM working stock of 72 in MeCN to 990 μL of each medium. A 50 μL aliquot was removed directly and immediately extracted as described below. At 5, 10, 15, 30, 60, 90, 120, 180, 240, 360 and 1440 minutes after addition of the drug further aliquots of 50 μL were taken and extracted as below. At each time point the 50 μL of the test solution was added to 50 μL of acetonitrile (MeCN). Samples were mixed for 10 seconds on a vortex mixer and centrifuged at 15700 rcf for 5 minutes in a microcentrifuge. The supernatant solution from each sample was placed into an HPLC vial for analysis. Samples were analysed by reverse phase HPLC with PDA detection.

[6] = HPLC analysis of enamine stability in human plasma; assay type: in vitro ADME; conditions: over a period of 24 hours
[7] = 10 min after inhibitor addition
[8] = 15 min after inhibitor addition
[9] = 30 min after inhibitor addition
[10] = 60 min after inhibitor addition

Sequence of Plk1 (P53350 whole entry): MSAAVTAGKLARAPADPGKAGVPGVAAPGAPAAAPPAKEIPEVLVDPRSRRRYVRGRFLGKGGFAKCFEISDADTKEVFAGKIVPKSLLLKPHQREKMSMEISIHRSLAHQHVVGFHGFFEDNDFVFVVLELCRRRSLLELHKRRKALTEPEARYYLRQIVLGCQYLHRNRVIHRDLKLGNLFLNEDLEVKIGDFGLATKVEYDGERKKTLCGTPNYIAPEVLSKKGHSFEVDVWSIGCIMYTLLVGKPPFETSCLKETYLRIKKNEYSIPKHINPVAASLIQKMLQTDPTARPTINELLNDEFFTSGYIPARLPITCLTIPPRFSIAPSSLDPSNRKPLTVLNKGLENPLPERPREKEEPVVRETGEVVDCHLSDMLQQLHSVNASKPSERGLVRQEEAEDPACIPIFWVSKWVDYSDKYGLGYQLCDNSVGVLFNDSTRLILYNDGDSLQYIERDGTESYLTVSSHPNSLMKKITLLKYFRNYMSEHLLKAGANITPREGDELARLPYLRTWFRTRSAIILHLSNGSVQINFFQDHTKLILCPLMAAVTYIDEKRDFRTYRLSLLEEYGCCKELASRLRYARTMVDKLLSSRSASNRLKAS

Compound | melting point [°C] | pIC50 (CDK2) | pIC50 (Nek2 [2]; Caliper assay) | further results
C[C@@]12c3ccc4c(c3C(=O)c3occ(c31)C(=O)C[C@H]2O)CCC4=O [Compound 4] | – | – | – | pIC50 (Nek2 [1]): 5.72
CN(C)CCNC(=O)Cc1cccc(Nc2nc(OCC3CCCCC3)c3nc[nH]c3n2)c1 [Compound 43, 2-[3-(6-Cyclohexylmethoxy-9H-purin-2-ylamino)phenyl]-N-(2-dimethylaminoethyl)acetamide] | 161 to 162 | 6.23 | 6.00 | –
CN(C)CCCCNC(=O)Cc1cccc(Nc2nc(OCC3CCCCC3)c3nc[nH]c3n2)c1 [Compound 45, 2-[3-(6-Cyclohexylmethoxy-9H-purin-2-ylamino)phenyl]-N-(4-dimethylaminobutyl)acetamide] | 125 to 127 | 6.07 | 6.15 | –
CN1CCN(CCCNC(=O)Cc2cccc(Nc3nc(OCC4CCCCC4)c4nc[nH]c4n3)c2)CC1 [Compound 46, 2-[3-(6-Cyclohexylmethoxy-9H-purin-2-ylamino)phenyl]-N-[3-(4-methylpiperazin-1-yl)propyl]acetamide] | 157 to 158 | 5.62 | 5.44 | –
O=C(Cc1cccc(Nc2nc(OCC3CCCCC3)c3nc[nH]c3n2)c1)NCCCc1ccccc1 [Compound 47, 2-[3-(6-Cyclohexylmethoxy-9H-purin-2-ylamino)phenyl]-N-(3-phenylpropyl)acetamide] | 154 to 155 | 5.00 | – | Nek2 IC50 (Nek2 [2]; Caliper assay): Inactive
O=S(=O)(Cc1cccc(Nc2nc(OCC3CCCCC3)c3nc[nH]c3n2)c1)N1CCNCC1 [Compound 50, 1-(3-(6-Cyclohexylmethoxy-9H-purin-2-ylamino)phenylmethanesulfonyl)piperazine] | 127 to 128 | 6.35 | 5.59 | –
CN(C)CCCNS(=O)(=O)Cc1cccc(Nc2nc(OCC3CCCCC3)c3nc[nH]c3n2)c1 [Compound 51, 1-[3-(6-Cyclohexylmethoxy-9H-purin-2-ylamino)phenyl]-N-(3-dimethylaminopropyl)methanesulfonamide] | 167 to 168 | 6.28 | 5.85 | –
COc1ccc(CNS(=O)(=O)Cc2cccc(Nc3nc(OCC4CCCCC4)c4nc[nH]c4n3)c2)cc1 [Compound 52, 1-[3-(6-Cyclohexylmethoxy-9H-purin-2-ylamino)phenyl]-N-(4-methoxybenzyl)methanesulfonamide] | 118 to 119 | 5.52 | – | inhibition at 100 µM (Nek2 [2]; @ 100 μM compound): 38%
NS(=O)(=O)Cc1cccc(Nc2nc(OCC3CCCCC3)c3nc[nH]c3n2)c1 [Compound 53, [3-(6-Cyclohexylmethoxy-9H-purin-2-ylamino)phenyl]methanesulfonamide] | 134 to 135 | 6.62 | – | inhibition at 50 µM (Nek2 [2]; @ 50 μM compound): 81%
CCOc1nc(Nc2cccc(CC(=O)NCCCn3ccnc3)c2)nc2[nH]cnc12 [Compound 62, 2-[3-(6-Ethoxy-9H-purin-2-ylamino)-phenyl]-N-(3-imidazol-1-ylpropyl)acetamide] | 176 to 177 | 5.28 | 5.55 | –
O=C(NCCN1CCCCC1)Nc1ccc(Nc2ncc3nc[nH]c3n2)cc1 [Compound 65, 1-(4-((9H-purin-2-yl)amino)phenyl)-3-(2-(piperidin-1-yl)ethyl)urea] | 96 to 98 | – | 5.35 | inhibition at 100 µM (CDK2; @ 100 μM compound): 30%
O=C(Cc1cccc(Nc2ncc3nc[nH]c3n2)c1)NCCCn1ccnc1 [Compound 67, N-(3-Imidazol-1-yl-propyl)-2-[3-(9H-purin-2-ylamino)phenyl]acetamide] | 121 to 122 | < 4.00 | 5.23 | –
C(=C\N1CCCC1)/c1nc(Nc2ccccc2)nc2[nH]cnc12 [Compound 69, (E)-N-Phenyl-6-(2-(pyrrolidin-1-yl)vinyl)-9H-purin-2-amine] | 138 to 140 | 5.24 | 6.47 | –
CN(C)/C=C/c1nc(Nc2ccccc2)nc2[nH]cnc12 [Compound 70, (E)-6-(2-(Dimethylamino)vinyl)-N-phenyl-9H-purin-2-amine] | 129 to 131 | 5.52 | 6.11 | inhibition at 10 µM (Plk1): 41%; reversibility of Nek2 inhibition (Nek2 [3]): binds reversibly; also recorded: not an irreversible inhibitor; Hill slope (Nek2 [4]; 2 min after inhibitor addition): 0.73; pIC50 (Nek2 [4]; 2 min after inhibitor addition): 5.86; Hill slope (Nek2 [4]; 5 min after inhibitor addition): 0.59; pIC50 (Nek2 [4]; 5 min after inhibitor addition): 6.08; Hill slope (Nek2 [4]; [7]): 0.79; pIC50 (Nek2 [4]; [7]): 5.80; Hill slope (Nek2 [4]; [8]): 0.71; pIC50 (Nek2 [4]; [8]): 5.88; Hill slope (Nek2 [4]; [9]): 0.72; pIC50 (Nek2 [4]; [9]): 5.97; Hill slope (Nek2 [4]; [10]): 0.85; pIC50 (Nek2 [4]; [10]): 5.83; time-dependence of Nek2 inhibition (Nek2 [4]; pre-incubation 2-60 min): not to exhibit time-dependent Nek2 inhibition kinetics
C(=C\N1CCCCCC1)/c1nc(Nc2ccccc2)nc2[nH]cnc12 [Compound 72, (E)-6-(2-(Azepan-1-yl)vinyl)-N-phenyl-9H-purin-2-amine] | – | – | – | stability in DMSO ([5]; DMSO solutions, for over 24 h): stable; stability in standard assay media ([5]; MEM and RPMI media, 10 μM, HPLC): degraded at a similar rate; stability at acidic pH ([5]; pH 2.2): relatively stable; stability at neutral pH ([5]; pH 7): rapidly degraded; stability at basic pH ([5]; pH 10.4): rapidly degraded; stability in human plasma [6]: relatively stable
CN(C)[C@@H]1CCN(/C=C/c2nc(Nc3ccccc3)nc3[nH]cnc23)C1 [Compound 73, (R, E)-6-(2-(3-(Dimethylamino)pyrrolidin-1-yl)vinyl)-N-phenyl-9H-purin-2-amine] | 136 to 138 | 5.16 | 5.52 | –
